In ChEMBL document CHEMBL3431459, “Roche carnitine palmitoyltransferase modulator screening data (supplementary data associated with the publication CHEMBL2216752)”:
In brackets after ≈: the same amount, converted by molar mass.

Experiments:
[1] = SUPPLEMENTARY: PAMPA permeability assay; format: physicochemical; details: read-out: Permeability
[2] = biological target: T1, Carnitine O-palmitoyltransferase 1, muscle isoform (Homo sapiens, UniProt Q92523); experiment: SUPPLEMENTARY: Inhibition of Carnitine palmitoyltransferase 1, muscle isoform; set-up: species or system Muscle tissue
T1 sequence (Q92523 whole entry): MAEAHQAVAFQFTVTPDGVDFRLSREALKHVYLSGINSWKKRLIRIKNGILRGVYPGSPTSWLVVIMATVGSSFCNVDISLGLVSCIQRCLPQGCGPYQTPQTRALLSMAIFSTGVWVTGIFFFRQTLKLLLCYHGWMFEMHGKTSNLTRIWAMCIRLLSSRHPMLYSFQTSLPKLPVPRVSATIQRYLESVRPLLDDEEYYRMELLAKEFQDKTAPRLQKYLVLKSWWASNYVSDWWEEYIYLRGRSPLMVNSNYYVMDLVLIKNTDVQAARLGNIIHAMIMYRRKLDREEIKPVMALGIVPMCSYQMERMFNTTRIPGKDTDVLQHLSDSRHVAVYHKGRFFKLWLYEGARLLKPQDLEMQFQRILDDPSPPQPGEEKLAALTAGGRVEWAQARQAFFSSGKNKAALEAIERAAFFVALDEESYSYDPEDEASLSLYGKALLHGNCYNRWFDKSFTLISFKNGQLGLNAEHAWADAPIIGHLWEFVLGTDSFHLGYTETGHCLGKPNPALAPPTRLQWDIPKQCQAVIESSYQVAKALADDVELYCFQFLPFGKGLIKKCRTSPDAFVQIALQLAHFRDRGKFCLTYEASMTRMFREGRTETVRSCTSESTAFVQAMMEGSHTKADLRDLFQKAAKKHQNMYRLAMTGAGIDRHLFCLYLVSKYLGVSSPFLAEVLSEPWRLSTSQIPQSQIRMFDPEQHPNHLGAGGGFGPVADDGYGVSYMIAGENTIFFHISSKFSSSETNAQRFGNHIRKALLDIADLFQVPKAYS

[3] = biological target: T2, Carnitine O-palmitoyltransferase 2, mitochondrial (Rattus norvegicus, UniProt P18886); experiment: (§1) SUPPLEMENTARY: Inhibition of Carnitine palmitoyltransferase 2
T2 sequence (P18886 whole entry): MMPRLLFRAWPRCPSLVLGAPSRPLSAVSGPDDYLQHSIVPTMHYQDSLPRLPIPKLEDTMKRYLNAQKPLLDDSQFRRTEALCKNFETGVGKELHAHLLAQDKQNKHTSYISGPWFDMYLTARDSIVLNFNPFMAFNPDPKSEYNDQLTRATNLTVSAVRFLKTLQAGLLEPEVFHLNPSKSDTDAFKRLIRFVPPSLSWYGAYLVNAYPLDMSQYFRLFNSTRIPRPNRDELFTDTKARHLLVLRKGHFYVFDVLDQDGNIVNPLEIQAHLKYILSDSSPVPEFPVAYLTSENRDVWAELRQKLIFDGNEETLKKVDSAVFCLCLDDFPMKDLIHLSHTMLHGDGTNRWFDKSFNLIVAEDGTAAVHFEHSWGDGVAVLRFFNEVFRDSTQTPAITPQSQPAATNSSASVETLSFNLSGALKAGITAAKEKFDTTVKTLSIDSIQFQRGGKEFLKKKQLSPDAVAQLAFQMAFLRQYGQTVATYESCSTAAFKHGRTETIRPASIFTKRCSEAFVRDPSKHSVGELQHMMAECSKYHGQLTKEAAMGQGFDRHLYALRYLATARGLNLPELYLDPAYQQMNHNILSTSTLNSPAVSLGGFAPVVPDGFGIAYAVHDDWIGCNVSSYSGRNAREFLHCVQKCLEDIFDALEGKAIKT

[4] = biological target: T3, Carnitine O-palmitoyltransferase 2, mitochondrial (Homo sapiens, UniProt P23786); experiment: as §1
T3 sequence (P23786 whole entry): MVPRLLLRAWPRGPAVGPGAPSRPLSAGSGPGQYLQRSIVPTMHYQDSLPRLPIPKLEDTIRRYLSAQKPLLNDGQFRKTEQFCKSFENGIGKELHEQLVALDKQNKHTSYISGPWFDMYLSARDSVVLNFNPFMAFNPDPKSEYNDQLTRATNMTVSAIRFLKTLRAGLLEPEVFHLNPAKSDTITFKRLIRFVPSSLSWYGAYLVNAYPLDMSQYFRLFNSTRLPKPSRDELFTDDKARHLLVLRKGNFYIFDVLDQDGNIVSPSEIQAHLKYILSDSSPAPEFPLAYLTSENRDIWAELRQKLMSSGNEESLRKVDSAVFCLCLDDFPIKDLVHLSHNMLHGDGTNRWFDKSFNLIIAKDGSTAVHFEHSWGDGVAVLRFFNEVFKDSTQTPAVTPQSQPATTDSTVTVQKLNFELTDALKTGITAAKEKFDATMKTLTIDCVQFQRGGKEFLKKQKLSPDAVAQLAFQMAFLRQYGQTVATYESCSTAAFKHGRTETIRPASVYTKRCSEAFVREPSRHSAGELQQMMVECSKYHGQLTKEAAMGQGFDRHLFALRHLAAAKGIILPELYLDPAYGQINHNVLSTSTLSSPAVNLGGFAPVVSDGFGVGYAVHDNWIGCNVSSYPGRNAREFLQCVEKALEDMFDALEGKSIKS

[5] = biological target: T4, Carnitine O-palmitoyltransferase 1, liver isoform (Homo sapiens, UniProt P50416); experiment: (§2) SUPPLEMENTARY: Inhibition of Carnitine palmitoyltransferase 1, liver isoform
T4 sequence (P50416 whole entry): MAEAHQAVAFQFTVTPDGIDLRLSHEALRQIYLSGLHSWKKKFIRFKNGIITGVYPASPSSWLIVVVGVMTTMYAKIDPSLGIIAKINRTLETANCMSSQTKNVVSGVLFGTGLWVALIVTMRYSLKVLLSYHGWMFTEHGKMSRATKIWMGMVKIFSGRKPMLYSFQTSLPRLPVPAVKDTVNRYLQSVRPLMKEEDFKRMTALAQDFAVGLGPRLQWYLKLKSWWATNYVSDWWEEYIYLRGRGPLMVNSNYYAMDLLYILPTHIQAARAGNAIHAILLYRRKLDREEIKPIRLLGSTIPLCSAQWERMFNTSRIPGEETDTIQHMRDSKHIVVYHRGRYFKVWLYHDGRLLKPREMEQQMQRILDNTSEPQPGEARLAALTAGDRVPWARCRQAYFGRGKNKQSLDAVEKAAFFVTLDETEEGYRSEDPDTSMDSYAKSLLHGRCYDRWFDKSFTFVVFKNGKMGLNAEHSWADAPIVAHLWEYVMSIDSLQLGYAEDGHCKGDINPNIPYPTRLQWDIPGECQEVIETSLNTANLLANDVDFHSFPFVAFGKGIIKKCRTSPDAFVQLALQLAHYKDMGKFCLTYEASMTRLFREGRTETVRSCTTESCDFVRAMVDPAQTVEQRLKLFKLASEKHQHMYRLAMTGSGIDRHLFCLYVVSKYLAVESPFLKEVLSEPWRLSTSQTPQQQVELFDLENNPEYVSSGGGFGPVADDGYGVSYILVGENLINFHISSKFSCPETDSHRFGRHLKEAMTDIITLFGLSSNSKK

[6] = biological target: T5, Carnitine O-palmitoyltransferase 1, liver isoform (Rattus norvegicus, UniProt P32198); experiment: as §2
T5 sequence (P32198 whole entry): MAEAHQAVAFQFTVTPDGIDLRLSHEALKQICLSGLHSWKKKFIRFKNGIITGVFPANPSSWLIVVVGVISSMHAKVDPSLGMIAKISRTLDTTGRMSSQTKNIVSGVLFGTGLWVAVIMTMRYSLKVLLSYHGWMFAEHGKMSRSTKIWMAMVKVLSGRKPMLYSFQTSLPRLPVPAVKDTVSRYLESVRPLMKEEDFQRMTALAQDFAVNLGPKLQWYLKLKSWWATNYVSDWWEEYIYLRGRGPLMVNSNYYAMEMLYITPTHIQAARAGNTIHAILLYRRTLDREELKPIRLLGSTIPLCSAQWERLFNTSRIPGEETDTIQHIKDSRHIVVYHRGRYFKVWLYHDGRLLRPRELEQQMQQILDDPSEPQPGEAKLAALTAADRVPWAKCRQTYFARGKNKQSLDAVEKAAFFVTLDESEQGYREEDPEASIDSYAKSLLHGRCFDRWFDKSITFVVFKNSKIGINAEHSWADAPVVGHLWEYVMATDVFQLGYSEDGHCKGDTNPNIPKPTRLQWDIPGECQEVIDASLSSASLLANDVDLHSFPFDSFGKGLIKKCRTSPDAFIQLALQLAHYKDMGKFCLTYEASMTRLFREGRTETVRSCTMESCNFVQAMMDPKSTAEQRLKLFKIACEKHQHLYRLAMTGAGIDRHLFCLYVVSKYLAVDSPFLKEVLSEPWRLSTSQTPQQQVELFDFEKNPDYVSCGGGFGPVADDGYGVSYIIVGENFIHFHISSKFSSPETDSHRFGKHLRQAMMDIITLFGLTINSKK

[7] = SUPPLEMENTARY: Lyophilisation Solubility Assay (LYSA); format: physicochemical; details: read-out: Kinetic_solubility

SMILES | Papp [1] [×10⁻⁶ cm/s] | IC50 [2] [µM] | IC50 [3] [µM] | IC50 [4] [µM] | IC50 [5] [µM] | IC50 [6] [µM] | solubility kinetic [7] [µg/mL]
COc1ccc(C)cc1S(=O)(=O)n1ccc2ccc(C(=O)Nc3ccc(C(=O)O)cc3)cc21 | 1.23 | 2.65 | 2.67 | 1.07 | 0.0294 | 0.0119 | < 1
CCn1cc(Sc2cc(Cl)ccc2OC)c2cc(C(=O)Nc3ccc(C(=O)O)cc3)ccc21 | 0.71 | > 100 | > 100 | > 100 | 0.169 | 0.473 | 4 (≈ 8.32 µM)
O=C(Nc1ccc(C(=O)O)c(F)c1)c1ccc2c(c1)N(S(=O)(=O)c1cc(Cl)cc(Cl)c1)CCC2 | 4.82 | 19.6 | > 100 | > 100 | 0.111 | 0.0534 | 7 (≈ 13.4 µM)
Cc1cc(C)cc(S(=O)(=O)n2ccc3ccc(C(=O)Nc4ccc(CC(=O)O)cc4)cc32)c1 | 1.89 | 0.95 | > 100 | > 100 | 0.152 | 0.151 | 6 (≈ 13 µM)
COc1ccc(Cl)cc1S(=O)(=O)N1COc2c(F)cc(C(=O)Nc3ccc(C(=O)O)c(Cl)c3)cc21 | 1.79 | 2.73 | 9.57 | 2.78 | 0.13 | 0.123 | 73 (≈ 135 µM)
Nc1cccc(-c2nc([C@H]3CCCCN3C(=O)COc3ccccc3)no2)n1 | 5.45 | > 100 | > 100 | 32 | 0.111 | 0.255 | 25 (≈ 65.9 µM)
COc1ccc(Cl)cc1Cc1cn(C)c2ccc(C(=O)Nc3ccc(C(=O)O)cc3)cc12 | 0.47 | 2.33 | 9.31 | 1.35 | 0.0399 | 0.102 | 23 (≈ 51.2 µM)
COc1ccc(Cl)cc1S(=O)(=O)c1cn(CC(N)=O)c2ccc(C(=O)Nc3ccccc3)cc12 | 0.3 | > 100 | > 100 | > 100 | 0.0128 | 0.0171 | 2 (≈ 4.02 µM)
